Series [1] in a line: Plasma nicotine metabolite cotinine concentration in MMT patients subgrouped by age. The series is classed as in vivo, human.
The nature of series [2]: Self-reported skin irritation after taking methadone in MMT patients. Particulars: 15 of 344 MMT patients.
Experimental: The inclusion criteria included subjects aged 18 or above, having undergone MMT for at least three months with regular attendance for the past seven days, and a methadone dosage adjustment of not more than 10 mg in the past seven days. Exclusion criteria included co-morbidity with physical and mental disorders requiring immediate treatment and pregnancy.

In the case of `CN1C(=O)CC[C@H]1c1cccnc1` [Cotinine], the Plasma cotinine concentration was 384.20 ± 184.90 ng/mL in series [1] (MMT subjects age <45, n=275, mean ± SD) and 439.65 ± 203.44 ng/mL in series [1] (MMT subjects age ≥45, n=69, mean ± SD).
`CCC(=O)C(CC(C)N(C)C)(c1ccccc1)c1ccccc1` (stereo not drawn) [R,S-methadone]: the “Patients self-reporting skin irritation after taking methadone” value in series [2] is given as “around 4.4%”.

The record behind these values is patent US20230273220A1, “METHODS FOR PREDICTION, DETECTION AND MONITORING OF SUBSTANCEUSE DISORDERS AND/OR AN INFECTION” (NATIONAL HEALTH RESEARCH INSTITUTES, priority 2020, published 2023).
